Experimental data taken from paper PMC7738880, “Identification of novel CD44v6-binding peptides that block CD44v6 and deliver a pro-apoptotic peptide to tumors to inhibit tumor growth and metastasis in mice” (Theranostics, 2021).
Residues, ends and D or L forms follow the SMILES beside them.

Key:
4T1 cells = test: Transwell cell migration and invasion assays, 4T1; format: cell-based, mouse; conditions: HGF 25 ng/mL, 24 h
Protocol: Transwell chambers (24-wells) with 8 μm pores were obtained from Corning (Corning, NY). MDA-MB231 and 4T1 cells (1 × 10^6 cells) were harvested, resuspended in 200 μL of DMEM containing CD44v6-binding peptides (20 µM), and then seeded into the upper chamber of the transwell chambers. The lower chamber was filled with 600 μL of DMEM containing 25 ng/mL HGF. After 24 h of incubation, cells that migrated into the reverse side of the transwell membrane were fixed with methanol, stained with crystal violet, and then counted under a light microscope. An average of five visual fields was obtained. For invasion assays, the transwell membrane was pre-coated with 300 µg/mL of Matrigel (Corning). […]
phosphorylation in 4T1 cells. (C-D) Transwell migration (C) and invasion (D) assays of 4T1 cells pre-treated or not with 5 μg/mL NLN and NEW for 10 min and subsequently treated with 25 ng/mL HGF for 10 min, followed by incubation for 24 h. Scale bars = 20 μm. Graphs (right panels) represent the quantification of the cell numbers in ten randomly selected fields. Data are shown as the means ± S.E. of three independent experiment. **, P < 0.01; ***, P < 0.001; n.s, not significant compared with HGF by one-way ANOVA.

MDA-MB231-luc cells = test: MDA-MB231-luc experimental lung metastasis model; format: in vivo; conditions: for number of tumor nodules in the lungs, peptide in combination with crizotinib versus single treatment / survival rate, peptide in combination with crizotinib versus single treatment: peptide 14.2 mg/kg i.v. plus crizotinib 25 mg/kg oral; for numbers of metastatic tumor nodules in the lungs / weights of the isolated lungs: peptide 14.2 mg/kg i.v. thrice weekly for 3 weeks; for luminescence signals and total photon flux in the whole body: peptide 14.2 mg/kg i.v. thrice weekly for 3 weeks from 1 h after tumor cell injection; for survival rate: peptide 14.2 mg/kg i.v. thrice weekly or crizotinib 25 mg/kg oral twice weekly, 3 weeks, single treatment; for liver and kidney functional marker levels (BUN, CRE, AST, ALT): peptide alone or in combination with crizotinib, serum, n = 5/group
Protocol: A mouse model of lung metastasis of breast cancer was prepared by injecting 1 × 10^6 MDA-MB231-luc cells into 6-week-old female BALB/c nude mice via tail vein. To monitor the localization of the tumor cells in the lungs, the mice were injected intraperitoneally with D-luciferin at a dose of 150 mg/kg body weight and subjected to a whole-body bioluminescence imaging using IVIS imaging system (Perkin Elmer) after a 10-min resting period. Mice (n = 10 per group) were randomly assigned to groups based on the luminescence intensity. At 1 h after tumor cell injection, tumor-bearing mice received intravenous injections of CD44v6-binding peptides through the tail vein (14.2 mg/kg body weight, thrice weekly for 3 weeks) alone or in combination with orally administered crizotinib in 5% dimethyl sulfoxide (DMSO) (25 mg/kg of body weight, twice weekly for 3 weeks) as previously described, [29]. Metastatic tumor growth after treatments was monitored by measuring the total photon flux (number of photons/second) in the whole body using the IVIS imaging system. The body weights of mice and tumor ulceration were monitored throughout the treatment period. At the end of the treatment period, half of the mice (n = 5 per group) were used for the collection of blood, sacrificed, the lungs were harvested and weighed, and the numbers of metastatic tumor nodules in the lungs were counted. The remaining mice (n = 5 per group) were maintained until death to determine the survival rates. For the analysis of hematological parameters, 1 mL of blood was collected from each mouse and separated into 500 µL aliquots used to prepare serum and plasma. Serum was obtained by centrifuging clotted blood at 4 °C twice, followed by filtration (pore size: 0.22 µm). Plasma was obtained by centrifuging ethylenediaminetetraacetic acid-treated samples. Hematological parameters and liver and kidney function markers were measured by DGMIF (Daegu, Korea).

4T1-luc cells = test: 4T1-luc orthotopic spontaneous metastasis model; format: in vivo; conditions: for tumor growth, lung metastasis, survival rate and TUNEL-stained apoptosis, peptide combined with crizotinib 12.5 mg/kg: peptide 14.2 mg/kg i.v. plus crizotinib 12.5 mg/kg oral, versus crizotinib alone 25 mg/kg; for primary tumor growth, lung metastasis and survival, peptide combined with crizotinib 25 mg/kg: peptide 14.2 mg/kg i.v. plus crizotinib 25 mg/kg oral, versus single treatment; for luminescence signals and total photon flux from the whole body: n = 6/group; for number of lung tumor nodules: relative to saline and control peptide; for hematologic parameters and liver and kidney functional marker levels: peptide alone or in combination with crizotinib, compared with control peptide, n = 3/group
Protocol: 4T1-luc cells (1 × 10^6 cells) were orthotopically inoculated into the mammary fat pads in 6-week-old female BALB/c mice. Panc-1 cells (1 × 10^6 cells) were subcutaneously inoculated into lower right flank in 6-week-old female BALB/c nude mice To monitor 4T1-luc tumor growth, mice were intraperitoneally injected with D-luciferin (150 mg/kg body weight), incubated for 10 min, and subjected to a whole-body bioluminescence imaging using the IVIS imaging system (Perkin Elmer). At two weeks after the inoculation, mice were randomly sorted into groups based on the luminescence intensity (4T1-luc) or tumor size (Panc-1). CD44v6-binding peptides were administered intravenously to 4T1 tumor-bearing mice (n = 6 per group) through the tail vein (14.2 mg/kg body weight, thrice weekly for three weeks) alone or in combination with crizotinib. Crizotinib in 5% DMSO was administered orally (12.5 and 25 mg/kg body weight, twice weekly for three weeks). CD44v6-targeted pro-apoptotic peptides or CD44v6-binding peptides and pro-apoptotic peptide in combination were intravenously administered to 4T1 or Panc-1 tumor-bearing mice (n = 10 per group) through the tail vein (10 mg/kg body weight, thrice weekly for 3 weeks). Primary tumor growth was monitored by measuring tumor volumes using a caliper and total photon flux in the whole body using the IVIS imaging system. The body weights and tumor ulceration were monitored throughout the treatment period. At the end of the treatments, half of the mice were used for the collection of blood, sacrificed, and the primary tumor weights and numbers of metastatic tumor nodules in the isolated lungs were determined. The remaining mice were maintained until death to determine the survival rates. The hematological parameters and liver and kidney function markers in plasma and serum samples were analyzed as described above. The normal ranges of hematological parameters of the BALB/c mouse and BALB/c nude mouse were obtained from Charles River Laboratories website (www.criver.com).

[1] = peptide 14.2 mg/kg i.v. thrice weekly for three weeks

Structure (SMILES)	HGF-induced cell migration and invasion, 4T1 (4T1 cells)	serum alanine transferase levels (MDA-MB231-luc cells; above the normal ranges, 14.2 mg/kg i.v. thrice weekly for 3 weeks)	number of tumor nodules in the lungs, peptide in combination with crizotinib versus single treatment (MDA-MB231-luc cells)	survival rate, peptide in combination with crizotinib versus single treatment (MDA-MB231-luc cells)	numbers of metastatic tumor nodules in the lungs (MDA-MB231-luc cells)	weights of the isolated lungs (MDA-MB231-luc cells)	luminescence signals and total photon flux in the whole body (MDA-MB231-luc cells)	survival rate (MDA-MB231-luc cells)	liver and kidney functional marker levels (BUN, CRE, AST, ALT) (MDA-MB231-luc cells)	tumor growth, lung metastasis, survival rate and TUNEL-stained apoptosis, peptide combined with crizotinib 12.5 mg/kg (4T1-luc cells)	primary tumor growth, lung metastasis and survival, peptide combined with crizotinib 25 mg/kg (4T1-luc cells)	body weight (4T1-luc cells; [1])	monocyte population (4T1-luc cells; [1])	survival rate (4T1-luc cells; [1])	volumes of primary tumors (4T1-luc cells; [1])	weights of isolated primary tumors (4T1-luc cells; [1])	luminescence signals and total photon flux from the whole body (4T1-luc cells; [1])	number of lung tumor nodules (4T1-luc cells; [1])	hematologic parameters and liver and kidney functional marker levels (4T1-luc cells)
CC[C@H](C)[C@H](NC(=O)[C@@H](NC(=O)[C@H](CC(N)=O)NC(=O)[C@H](CC(C)C)NC(=O)[C@H](CC(N)=O)NC(=O)[C@@H](N)CS)[C@@H](C)O)C(=O)N[C@@H](CC(=O)O)C(=O)N[C@H](C(=O)N[C@@H](CS)C(=O)O)[C@@H](C)O [NLN] (H-CNLNTIDTC-OH; N-terminus and C-terminus assumed)	inhibited	significantly increased	more efficiently reduced	increased the survival rate	reduced	reduced	decreased	increased	within or close to the normal ranges	more efficiently than crizotinib alone	more efficiently than a single treatment	little effect	decreased below the normal ranges	increased	decreased	decreased	decreased	reduced number	not significantly changed or remained within normal ranges
CC(C)C[C@H](NC(=O)[C@H](CCC(N)=O)NC(=O)[C@H](Cc1c[nH]c2ccccc12)NC(=O)[C@H](CCC(=O)O)NC(=O)[C@H](CC(N)=O)NC(=O)[C@@H](N)CS)C(=O)N[C@@H](CCCCN)C(=O)N[C@@H](CO)C(=O)N[C@@H](CS)C(=O)O [NEW] (H-CNEWQLKSC-OH; N-terminus and C-terminus assumed)	inhibited		more efficiently reduced	increased the survival rate	reduced	reduced	decreased	increased	within or close to the normal ranges	more efficiently than crizotinib alone	more efficiently than a single treatment	little effect		increased	decreased	decreased	decreased	reduced number	not significantly changed or remained within normal ranges
